Data set [1] can be described thus: Example 2: pritelivir aqueous suspension SC PK study in rat at lower dose. Format: in vivo, male Sprague Dawley rats. As to conditions: aqueous suspension (dihydrate), 10 mg/kg. As for the experimental part: The LC-MS methodology and conditions used to analyse pritelivir in plasma samples from the PK studies described in Examples 1 to 5 are provided in Table 1.
An aqueous suspension of crystalline pritelivir free base (dihydrate) in a 0.9% NaCl+0.5% polysorbate 80 vehicle at a concentration of 3.0 mg/mL was prepared as follows: • 1) Vehicle (0.9% w/w NaCl and 0.5% w/w polysorbate 80) was prepared by dissolving NaCl and polysorbate 80 in water. • 2) Appropriate amount of crystalline pritelivir free base (dihydrate) was weighed and added to the vehicle. • 3) Mixture was stirred for 15 minutes, then vortexed for 1 minute and then sonicated for 10 minutes. • 4) The final dosing formulation was a homogenous white cloudy suspension.
Male SD rats with 230-250 g body weight, ages 6-8 weeks were used for the rat PK study. The animals had free access to food and water. The prepared suspension was administered via subcutaneous injection to each animal group (n=3) with a dosing volume of 3.33 mL/kg to achieve a 10 mg/kg dose.
At each time point, approximately 200 μL whole blood was collected via the jugular vein into K2EDTA tubes. Blood samples were put on to ice and centrifuged at 2000 g for 5 min to obtain plasma sample within 15 minutes. Plasma samples were stored at approximately −70° C. until analyzed by LC-MS.

In data set [2] the test system is HSV-1. The following applies: Field et al. (2013); read-out: in-vitro EC50 against HSV-1; cited from earlier work.
The subject of data set [3] is plasma protein. As to conditions: cited from earlier work.
A short description of data set [4]: Example 7: Compound 1 aqueous suspension SC PK study in dog. Format: in vivo, male non-naïve Beagle dogs. The following applies: aqueous suspension (Form A), 10 mg/kg. The procedure: The LC-MS methodology and conditions used to analyse the helicase-primase inhibitor Compound 1 in plasma samples from the sub-cutaneous injection PK studies (Examples 7 and 10-12) are described in Table 3 and Table 4. An aqueous suspension of crystalline Compound 1 (Form A) was prepared in a 0.9% NaCl+0.5% poloxamer 188 vehicle at a concentration of 5.0 mg/mL as described in Example 4. The suspension was then dosed to male non-naïve beagle dogs at 10 mg/kg according to the Example 4 animal dosing method.

A short description of data set [5]: Injection site observation in Example 7 Compound 1 PK studies. In kind it is in vivo, rat, monkey, dog. The following applies: SC Compound 1 depot formulations, Example 7, 3 species. The procedure:
The suspension was then dosed to male SD rats at 10 mg/kg according to the Example 2 animal dosing method. The suspension was then dosed to male cyno monkeys at 10 mg/kg according to the Example 3 animal dosing method. The suspension was then dosed to male non-naïve beagle dogs at 10 mg/kg according to the Example 4 animal dosing method.

Data set [6] is described as follows: Example 12: Compound 1 (Form A) aqueous suspension SC PK study in dog. In kind it is in vivo, male non-naïve Beagle dogs. As to conditions: 10 mg/kg, following an initial drug burst. The procedure: An aqueous suspension of Compound 1 free form (Form A) in a 0.9% NaCl+0.5% poloxamer 188 vehicle at a concentration of 5.0 mg/mL was prepared as follows: • 1) Vehicle (0.9% w/w NaCl and 0.5% w/w poloxamer 188) was prepared by dissolving NaCl and poloxamer 188 in water. • 2) Appropriate amount of Compound 1 free form was weighed and added to the vehicle. • 3) The mixture was stirred for 15 minutes, then vortexed for 1 minute and then sonicated for 10 minutes. • 4) The final dosing formulation was a homogenous white cloudy suspension.
Male non-naïve beagles with ~10 kg body weight were used for the dog PK study. The animals had free access to food and water. The prepared suspension was administered via subcutaneous injection to each animal group (n=3) with a dosing volume of 2 mL/kg to achieve a 10 mg/kg dose.
At each time point, approximately 0.5 mL of whole blood was collected into K2EDTA tubes. Blood samples were put on ice and centrifuged at 2000 g for 5 min to obtain plasma samples within 15 minutes. Plasma samples were stored at approximately −70° C. until analyzed by LC-MS.

Data set [7] can be described thus: Example 13: Compound 1 IV PK study in rat. In kind it is in vivo, male Sprague Dawley rats. The following applies: male, Sprague Dawley, plasma, 1 mg/kg, read-out: Rat t1/2 (converted). As for the experimental part:
The LC-MS methodology and conditions used to analyse Compound 1 in plasma samples from the intra-venous injection PK studies (Example 13) are described in Tables 5 to 7. A 0.2 mg/mL solution of Compound 1 in 10% NMP, 10% Solutol HS15 and 80% Saline was prepared as follows: • 1) A stock solution of Compound 1 in NMP was prepared. • 2) An equal volume of the Compound 1 stock solution and Solutol HS15 were combined and mixed. • 3) The above solution was diluted with normal saline to reach the target concentration. The final formulation was a clear solution. Male Sprague Dawley (SD) rats with 230-250 g body weight, ages 6-8 weeks, were used for the rat pharmacokinetic study. The animals had free access to food and water. The Compound 1 solution described above was administered via intravenous injection to animals (n=3) to achieve a 1.0 mg/kg dose. At each time point, approximately 200 μL whole blood was collected in a K2EDTA tubes. Blood samples were put on ice and centrifuged at 2000 g for 5 min to obtain a plasma sample within 15 minutes. Plasma samples were stored at approximately −70° C. until analyzed by LC-MS according to the method described above.

Data set [8] is described as follows: Example 13: Compound 1 IV PK study in monkey. The following applies: male, cynomolgus, plasma, 0.25 mg/kg, read-out: Monkey t1/2 (converted). Format: in vivo, male cynomolgus monkeys. As for the experimental part: The LC-MS methodology and conditions used to analyse Compound 1 in plasma samples from the intra-venous injection PK studies (Example 13) are described in Tables 5 to 7. A 0.25 mg/mL solution of Compound 1 in 10% DMSO, 10% Solutol HS15 and 80% Saline was prepared as follows: • 1) A stock solution of Compound 1 in DMSO was prepared. • 2) An equal volume of the Compound 1 stock solution and Solutol HS15 were combined and mixed. • 3) The above solution was diluted with normal saline to reach the target concentration. The final formulation was a clear solution. Male non-naïve Cyno Monkeys with were used for the monkey PK study. The animals had free access to food and water. The prepared solution was administered via intravenous injection to each animal group (n=3) to achieve a 0.25 mg/kg dose. At each time point, approximately 0.5 mL whole blood was collected into K2EDTA tubes. Blood samples were put on to ice and centrifuged at 2000 g for 5 min to obtain plasma sample within 15 minutes. Plasma samples were stored at approximately −70° C. until analyzed by LC-MS.

By EC50 is commonly meant the concentration needed to bring the measured effect to its halfway point.

As to `Cc1nc(N(C)C(=O)Cc2ccc(-c3ccccn3)cc2)sc1S(N)(=O)=O` [pritelivir, N-methyl-N-(4-methyl-5-sulfamoyl-1,3-thiazol-2-yl)-2-[4-(pyridin-2-yl)phenyl]acetamide], the “prolonged exposure out to (length of the study)” value in data set [1] is reported as “at least 144 hours”. The EC50 in data set [2] is 26 nM. Besides, the protein binding in data set [3] is recorded as 97-98%.
For `Cc1nc(N2CCCN(c3ccc(-c4cc(F)ccc4F)cc3)C2=O)sc1S(N)(=O)=O` [Compound 1, 2-(3-(2′,5′-difluoro-[1,1′-biphenyl]-4-yl)-2-oxotetrahydropyrimidin-1(2H)-yl)-4-methylthiazole-5-sulfonamide], in data set [4], the “prolonged exposure out to (length of the study)” value is “at least 1392 hours”. Moreover, the “adverse reactions at the injection sites” value in data set [5] is reported as “no adverse reactions observed”. The “prolonged exposure out to” value in data set [6] is given as “at least 220 days”. Besides, the half-life in data set [7] is 22 h; in data set [8], 49.6 h.
